Key:
Homo sapiens = species: Homo sapiens; assay: Selectivity ratio of Ki for human recombinant adenosine A1 receptor to Ki for human recombinant adenosine A2A receptor
Adenosine receptor A1 = target: T1, Adenosine receptor A1 (Homo sapiens, UniProt P30542); assay: Displacement of [3H]DPCPX from human recombinant adenosine A1 receptor expressed in CHOK1 cells; assay type: cell-based, CHO-K1
T1 sequence (P30542 whole entry): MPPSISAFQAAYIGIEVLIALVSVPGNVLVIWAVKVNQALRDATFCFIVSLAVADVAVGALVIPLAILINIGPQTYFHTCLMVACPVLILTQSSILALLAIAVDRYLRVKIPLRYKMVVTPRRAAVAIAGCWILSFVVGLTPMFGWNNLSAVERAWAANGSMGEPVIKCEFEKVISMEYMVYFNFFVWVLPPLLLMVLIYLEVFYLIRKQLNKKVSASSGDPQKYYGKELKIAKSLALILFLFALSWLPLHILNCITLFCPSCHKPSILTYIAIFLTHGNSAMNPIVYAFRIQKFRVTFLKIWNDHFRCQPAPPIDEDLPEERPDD

Adenosine receptor A2a = Adenosine receptor A2a (Homo sapiens, UniProt P29274); assay: Displacement of [3H]SCH-58261 from human recombinant adenosine A2A receptor expressed in HEK293 cells; assay type: cell-based
Chain of Adenosine receptor A2a (P29274 whole entry): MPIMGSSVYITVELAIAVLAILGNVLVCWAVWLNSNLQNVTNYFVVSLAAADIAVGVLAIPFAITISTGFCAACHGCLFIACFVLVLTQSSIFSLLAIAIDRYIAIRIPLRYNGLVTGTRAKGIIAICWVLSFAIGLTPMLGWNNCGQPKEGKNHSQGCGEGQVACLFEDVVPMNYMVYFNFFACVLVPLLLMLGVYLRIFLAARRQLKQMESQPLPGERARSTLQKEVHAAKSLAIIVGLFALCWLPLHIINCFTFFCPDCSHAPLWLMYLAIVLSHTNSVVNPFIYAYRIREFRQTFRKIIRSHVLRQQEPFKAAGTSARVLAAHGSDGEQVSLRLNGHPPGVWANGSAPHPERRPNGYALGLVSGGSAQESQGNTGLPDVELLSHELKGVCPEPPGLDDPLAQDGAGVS

| Compound | Ratio Ki (Homo sapiens) | Ki (Adenosine receptor A1) [µM] | Ki (Adenosine receptor A2a) [µM] |
| --- | --- | --- | --- |
| O=C(c1ccccc1)c1sc(NCCc2cccs2)nc1-c1ccco1 | > 580 | > 6.7 | 0.012 |
| CC(C)CNc1nc(-c2ccco2)c(C(=O)c2ccccc2)s1 | 14 | 1.28 | 0.089 |
| CN(Cc1ccco1)c1nc(-c2ccco2)c(C(=O)c2ccccc2)s1 | 21 | 3.42 | 0.16 |
| CN(CCc1cccs1)c1nc(-c2ccco2)c(C(=O)c2ccccc2)s1 | > 1.2 | > 10 | 8.17 |
| O=C(c1ccccc1)c1sc(NCCc2ccc3c(c2)OCO3)nc1-c1ccco1 | 58 | 3.5 | 0.061 |
| O=C(c1ccccc1)c1sc(NCc2ccco2)nc1-c1ccco1 | 35 | 1.46 | 0.043 |
| CN(Cc1ccccc1)c1nc(-c2ccco2)c(C(=O)c2ccccc2)s1 | 3.4 | 9.46 | 2.8 |
| O=C(c1ccccc1)c1sc(NCc2cccs2)nc1-c1ccco1 | 56 | 2.99 | 0.054 |
| O=C(c1ccccc1)c1sc(N(Cc2ccccc2)Cc2ccco2)nc1-c1ccco1 | > 115 | > 10 | 0.088 |
| O=C(c1ccccc1)c1sc(NC2CCN(C(=O)c3ccccc3F)CC2)nc1-c1ccco1 | 35 | 3.71 | 0.105 |
| CC(=O)N1CCC(Nc2nc(-c3ccco3)c(C(=O)c3ccccc3)s2)CC1 | 3 | 1.24 | 0.455 |
| O=C(c1ccccc1)c1sc(N(CCc2cccs2)Cc2ccccc2)nc1-c1ccco1 | > 1.4 | > 10 | 7.14 |
| CNc1nc(-c2ccco2)c(C(=O)c2ccccc2)s1 | 54 | 3.58 | 0.067 |
| COCCNc1nc(-c2ccco2)c(C(=O)c2ccccc2)s1 | 35 | 6.78 | 0.195 |
| CN(C)c1nc(-c2ccco2)c(C(=O)c2ccccc2)s1 | > 1.5 | > 10 | 6.82 |
| COC(C)CNc1nc(-c2ccco2)c(C(=O)c2ccccc2)s1 (configuration not stated) | 26 | 3.97 | 0.154 |
| O=C(c1ccccc1)c1sc(NCCCc2ccccc2)nc1-c1ccco1 | 60 | 6.3 | 0.105 |
| CC(=O)NCCNc1nc(-c2ccco2)c(C(=O)c2ccccc2)s1 | 9 | 2.42 | 0.281 |
| O=C(c1ccccc1)c1sc(NCc2ccc(F)c(F)c2)nc1-c1ccco1 | > 120 | > 7.5 | 0.064 |

From ChEMBL document CHEMBL1154525, “Synthesis of 2-amino-5-benzoyl-4-(2-furyl)thiazoles as adenosine A(2A) receptor antagonists” (Bioorg Med Chem Lett, 2009)
